Source: patent US20250145589A1, “PYRIDINE DERIVATIVE AND USE THEREOF” (SICHUAN HUIYU PHARMACEUTICAL CO., LTD., priority 2021, published 2025)
Like-named read-outs stand apart in the source and are kept apart here.

Legend:
KRAS^G12C-SOS1 = KRAS^G12C-SOS1 (Homo sapiens (Human), UniProt P01116, G12C); assay: HTRF KRAS G12C/SOS1 binding assay; settings: Table 5
Procedure, shortened: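 Compound was serially diluted five-fold over eight points, with a 2 mM DMSO stock. After anti-tag-Tb3+ and anti-tag-XL665 were added, plates were incubated 3 h at 4 °C and read by HTRF (ex 337 nm, em 620/665 nm ratio). IC50 values come from four-parameter variable-slope fits.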

[1] = tested on: MIA PaCa-2 cells (KRAS G12C mutant); assay: MIA PaCa-2 cell anti-proliferation (CellTiter-Glo); type: cell-based; settings: Homo sapiens
Procedure, shortened: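 Viable-cell luminescence (CellTiter-Glo, ≥30 min at 25 °C) measured after a 3-day, 37 °C exposure to compounds at 9 points, 4-fold spaced, in DMEM containing 10% FBS plus 2.5% horse serum. IC50 derived versus no-inhibitor wells.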

[2] = tested on: NCI-H358-AMGR drug-resistant cell line; assay: NCI-H358-AMGR drug-resistant cell proliferation inhibitory activity test; type: cell-based; settings: 72 h; NCI-H358-AMGR drug-resistant cells, 3 days incubation, CellTiter-Glo
Procedure, shortened: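 Luminescent CellTiter-Glo read-out after 3-day, 37° C compound exposure (8 points, 5-fold series) of AMG510-resistant NCI-H358 cells plated at 4×10^3 per well.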

[3] = 72 h, MIA Paca-2 cells, 3 days, Table 7, read-out: MIA PaCa-2 (IC50)

KRAS^G12C-SOS1, sequence (P01116-2 other isoform, or with tags, fused parts or gaps G12C): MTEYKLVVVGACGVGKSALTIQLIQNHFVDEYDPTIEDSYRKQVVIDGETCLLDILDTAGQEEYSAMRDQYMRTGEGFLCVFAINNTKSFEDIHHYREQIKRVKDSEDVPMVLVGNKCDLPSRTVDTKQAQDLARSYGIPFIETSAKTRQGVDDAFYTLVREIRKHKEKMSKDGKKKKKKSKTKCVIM

Compound	IC50 (KRAS^G12C-SOS1)	IC50 [1, 3]	IC50 [2]	IC50 ([1]; MIA PaCa-2, 72 h, read-out: MIA PaCa-2 (IC50, nM))
COc1ncc(-c2ccc3ncnc(C4CCN(C(=O)/C=C/C(C)=O)CC4)c3n2)cc1NS(=O)(=O)c1sc(C)nc1C [Example 230, (E)-N-(2-methoxy-5-(4-(1-(4-oxopent-2-enoyl)piperidin-4-yl)pyrido[3,2-d]pyrimidin-6-yl)pyridin-3-yl)-2,4-dimethylthiazol-5-sulfonamide]	493 nM	24.2 nM	26.7 nM	
COc1ncc(-c2ccc3ncnc(N4CCN(C(=O)/C=C/C(C)=O)[C@@H](CC#N)C4)c3c2)cc1NS(=O)(=O)c1c(F)cccc1F [Example 116, (S,E)-N-(5-(4-(3-(cyanomethyl)-4-(4-oxopent-2-enoyl)piperazin-1-yl)quinazolin-6-yl)-2-methoxypyridin-3-yl)-2,6-difluorobenzenesulfonamide]	1570 nM	107 nM	232 nM	
COc1ncc(-c2ccc3ncnc(C4=CCN(C(=O)/C=C/C(C)=O)CC4)c3c2)cc1NS(=O)(=O)c1c(F)cccc1Cl [Example 202, (E)-2-chloro-6-fluoro-N-(2-methoxy-5-(4-(1-(4-oxopent-2-enoyl)-1,2,3,6-tetrahydropyridin-4-yl)quinazolin-6-yl)pyridin-3-yl)benzene-sulfonamide]	142 nM	11.6 nM	9.6 nM	
COc1ncc(-c2ccc3ncnc(N4CCN(C(=O)/C=C/C(C)=O)CC4)c3n2)cc1NS(=O)(=O)c1cc(F)ccc1F [Example 217, (E)-2,5-difluoro-N-(2-methoxy-5-(4-(4-(4-oxopent-2-enoyl)piperazin-1-yl)pyrido[3,2-d]pyrimidin-6-yl)pyridin-3-yl) benzene-sulfonamide]	207 nM	21.1 nM	32.1 nM	
COc1ncc(-c2ccc3ncnc(N4CCN(C(=O)/C=C/C(C)=O)CC4)c3c2)cc1NS(=O)(=O)c1ccc(C(F)(F)F)cc1F [Example 124, (E)-2-fluoro-N-(2-methoxy-5-(4-(4-(4-oxopent-2-enoyl)piperazin-1-yl)quinazolin-6-yl)pyridin-3-yl)-4-(trifluoromethyl)benzenesulfonamide]	730 nM	58.4 nM	85.5 nM	
COc1ncc(-c2ccc3ncnc(N4CCC5(CC4)CN(C(=O)/C=C/C(C)=O)C5)c3c2)cc1NS(=O)(=O)c1c(F)cccc1F [Example 49, (E)-2,6-difluoro-N-(2-methoxy-5-(4-(2-(4-oxopent-2-enoyl)-2,7-diazaspiro[3.5]nonan-7-yl)quinazolin-6-yl)pyridin-3-yl) benzenesulfonamide]	225 nM	110 nM	45.5 nM	
COc1ncc(-c2ccc3ncnc(N4CCN(C(=O)/C=C/C(C)=O)CC4)c3n2)cc1NS(=O)(=O)c1c(F)cccc1F [Example 131, (E)-2,6-difluoro-N-(2-methoxy-5-(4-(4-(4-oxopent-2-enoyl)piperazin-1-yl)pyrido[3,2-d]pyrimidin-6-yl)pyridin-3-yl)benzenesulfonamide]	200 nM	25 nM	19.1 nM	
COc1ncc(-c2ccc3ncnc(N4CCC5(CC4)CN(C(=O)/C=C/C(C)=O)C5)c3c2)cc1NS(=O)(=O)c1sc(C)nc1C [Example 178, (E)-N-(2-methoxy-5-(4-(2-(4-oxopent-2-enoyl)-2,7-diazaspiro[3.5]nonan-7-yl)quinazolin-6-yl)pyridin-3-yl)-2,4-dimethyl-thiazole-5-sulfonamide]	213 nM	43.1 nM	66.2 nM	
COc1ncc(-c2ccc3ncnc(N4CCN(C(=O)/C=C/C(C)=O)CC4)c3c2)cc1NS(=O)(=O)c1ccc(Cl)cc1F [Example 177, (E)-4-chloro-2-fluoro-N-(2-methoxy-5-(4-(4-(4-oxopent-2-enoyl)piperazin-1-yl)quinazolin-6-yl)pyridin-3-yl)benzene-sulfonamide]	246 nM	25.9 nM	48.9 nM	
COc1ncc(-c2ccc3ncnc(C4CCN(C(=O)/C=C/C(C)=O)CC4)c3c2)cc1NS(=O)(=O)c1c(F)cccc1F [Example 205, (E)-2,6-difluoro-N-(2-methoxy-5-(4-(1-(4-oxopent-2-enoyl)piperidin-4-yl)quinazolin-6-yl)pyridin-3-yl) benzenesulfonamide]	369 nM	78.9 nM	15.2 nM	
COc1ncc(-c2ccc3ncnc(N4CCN(C(=O)/C=C/C(C)=O)CC4)c3c2)cc1NS(=O)(=O)c1ccccc1C [Example 93, (E)-N-(2-methoxy-5-(4-(4-(4-oxopent-2-enoyl)piperazin-1-yl)quinazolin-6-yl)pyridin-3-yl)-2-methylbenzenesulfonamide]	344 nM	39.4 nM	69.3 nM	
COc1ncc(-c2ccc3ncnc(N4CCN(C(=O)/C=C/C(C)=O)CC4)c3c2)cc1NS(=O)(=O)c1ccccc1F [Example 91, (E)-2-fluoro-N-(2-methoxy-5-(4-(4-(4-oxopent-2-enoyl)piperazin-1-yl)quinazolin-6-yl)pyridin-3-yl)benzenesulfonamide]	173 nM	30.7 nM	83.9 nM	
COc1ncc(-c2ccc3ncnc(N4CC5CCC(C4)N5C(=O)/C=C/C(C)=O)c3c2)cc1NS(=O)(=O)c1sc(C)nc1C [Example 176, N-(2-methoxy-5-(4-(8-((E)-4-oxopent-2-enoyl)-3,8-diazabicyclo [3.2.1]octan-3-yl)quinazolin-6-yl)pyridin-3-yl)-2,4-dimethyl-thiazole-5-sulfonamide]	113 nM	29.3 nM	76.1 nM	
COc1ncc(-c2ccc3ncnc(N4CCN(C(=O)/C=C/C(C)=O)CC4)c3n2)cc1NS(=O)(=O)c1cccc(F)c1F [Example 218, (E)-2,3-difluoro-N-(2-methoxy-5-(4-(4-(4-oxopent-2-enoyl)piperazin-1-yl)pyrido[3,2-d]pyrimidin-6-yl)pyridin-3-yl) benzene-sulfonamide]	292 nM	21.5 nM	13.5 nM	
COc1ncc(-c2ccc3ncnc(C4CCN(C(=O)/C=C/C(C)=O)CC4)c3n2)cc1NS(=O)(=O)c1c(F)cc(F)cc1F [Example 231, (E)-2,4,6-trifluoro-N-(2-methoxy-5-(4-(1-(4-oxopent-2-enoyl)piperidin-4-yl)pyrido[3,2-d]pyrimidin-6-yl)pyridin-3-yl)benzenesulfonamide]	462 nM	13.2 nM	21.6 nM	
COc1ncc(-c2ccc3ncnc(C4=CCN(C(=O)/C=C/C(C)=O)CC4)c3c2)cc1NS(=O)(=O)c1ccccc1F [Example 200, (E)-2-fluoro-N-(2-methoxy-5-(4-(1-(4-oxopent-2-enoyl)-1,2,3,6-tetrahydropyridin-4-yl)quinazolin-6-yl)pyridin-3-yl)benzene-sulfonamide]	133 nM	40.5 nM	6.5 nM	
CCOc1ncc(-c2ccc3ncnc(N4CCN(C(=O)/C=C/C(C)=O)CC4)c3c2)cc1NS(=O)(=O)c1ccc(F)cc1F [Example 109, (E)-N-(2-ethoxy-5-(4-(4-(4-oxopent-2-enoyl)piperazin-1-yl)quinazolin-6-yl)pyridin-3-yl)-2,4-difluorobenzenesulfonamide]	499 nM	94.2 nM	113 nM	
COc1ccc(Cl)c(S(=O)(=O)Nc2cc(-c3ccc4ncnc(N5CCN(C(=O)/C=C/C(C)=O)CC5)c4c3)cnc2OC)c1 [Example 184, (E)-2-chloro-5-methoxy-N-(2-methoxy-5-(4-(4-(4-oxopent-2-enoyl)piperazin-1-yl)quinazolin-6-yl)pyridin-3-yl)benzene-sulfonamide]	365 nM	60.2 nM	135 nM	
COc1ncc(-c2ccc3ncnc(C4=CCN(C(=O)/C=C/C(C)=O)CC4)c3c2)cc1NS(=O)(=O)c1sc(C)nc1C [Example 199, (E)-N-(2-methoxy-5-(4-(1-(4-oxopent-2-enoyl)-1,2,3,6-tetrahydropyridin-4-yl)quinazolin-6-yl)pyridin-3-yl)-2,4-dimethylthiazole-5-sulfonamide]	176 nM	41.1 nM	21.7 nM	
COc1ncc(-c2ccc3ncnc(N4CCN(C(=O)/C=C/C(C)=O)C[C@@H]4C)c3c2)cc1NS(=O)(=O)c1ccc(F)cc1Cl [Example 174, (S,E)-2-chloro-4-fluoro-N-(2-methoxy-5-(4-(2-methyl-4-(4-oxopent-2-enoyl)piperazin-1-yl)quinazolin-6-yl)pyridin-3-yl)benzene-sulfonamide]	423 nM	15.6 nM	28.6 nM	
COc1ncc(-c2ccc3ncnc(N4CCN(C(=O)/C=C/C(C)=O)CC4)c3n2)cc1NS(=O)(=O)c1c(Cl)cncc1Cl [Example 224, (E)-3,5-dichloro-N-(2-methoxy-5-(4-(4-(4-oxopent-2-enoyl)piperazin-1-yl)pyrido[3,2-d]pyrimidin-6-yl)pyridin-3-yl) pyridine-4-sulfonamide]	188 nM	79.3 nM	220 nM	
COc1ncc(-c2ccc3ncnc(N4CCN(C(=O)/C=C/C(C)=O)CC4)c3c2)cc1NS(=O)(=O)c1c(F)cccc1C#N [Example 122, (E)-2-cyano-6-fluoro-N-(2-methoxy-5-(4-(4-(4-oxopent-2-enoyl)piperazin-1-yl)quinazolin-6-yl)pyridin-3-yl)benzenesulfonamide]	145 nM		128 nM	106 nM
